# Entries after “also recorded” stand apart in the source; their conditions may differ. Where no end group is shown, it is not given here. [ ]: non-standard residue; d: D form. Aib = CC(C)(N)C(=O)O
# Assays:
# db/db mice [1] = assay: Blood glucose lowering in db/db mice (Example 8); type: in vivo; conditions: db/db male mice, 30 nmol/kg subcutaneous single dose, blood glucose 0-10 hours, AUC, vs PBS control; FIG. 2
# Protocol: The feeding conditions of db/db mice were the same as described in Example 7. The db/db male mice (8 weeks old) were given one week to acclimate to the environmental conditions of the test facility. Baseline blood glucose and body weight were recorded for three days before the experiment (−3 day to −1 day). The mice were randomly grouped based on their three-day blood glucose and body weight, with 6 mice in each group. Mice were injected subcutaneously with PBS (5 ml/kg, control group) or the peptide compounds 31, 35, 38, 44 and 49 (30 nmol/kg) respectively at 10:00 in the morning. Blood was collected at 0 hour before drug administration, and 1, 2, 4, 6, 8, and 10 hours after administration, and blood glucose was measured using a OneTouch glucose meter (Johnson & Johnson) and test strips. Blood glucose curves were plotted with time as the abscissa and the blood glucose value at different time point as the ordinate, and the areas under the curve (AUC) were calculated.
# DIO obese mice = DIO obese mice 14-day body composition study (Example 14); type: in vivo, C57BL/6 mice; conditions: 1.5 nmole per animal s.c. once a day for 14 days; for lean mass: EchoMRI day 0 vs day 15, FIG. 13; for fat mass: EchoMRI day 0 vs day 15, vs PBS control, FIG. 13
# Protocol: The DIO obese mice experiment was conducted by Shanghai WuXi AppTec New Drug Development Co., Ltd. The animal feeding was the same as described in Example 13. The animals were adapted to grasping and subcutaneous injection for 1 week at 40 weeks of age. The body weight and food intake were measured for 3 consecutive days before the experiment, and the fasting blood glucose of the animals was measured 1 day before the experiment. The animals with abnormal blood glucose were removed, and the remaining animals were grouped according to the random blood glucose and body weight of the animals (using body weight as the main reference indicator), with 6 animals per group and an average weight of 47 grams. During the experiment, each group of the animals was injected subcutaneously with PBS, or 1.5 nmole of compound 35 or compound 40 per animal once a day, and the dosing period was 14 days. An EchoMRI body composition analyzer was used to measure the body fat content of the animals before and after the experiment.
# db/db mice [2] = assay: Blood glucose lowering in db/db mice (Example 7); type: in vivo; conditions: db/db male mice, 30 nmol/kg subcutaneous single dose, blood glucose 0-10 hours, AUC, vs PBS control; FIG. 1
# Protocol: db/db mice were housed in animal feeding rooms with strictly controlled environmental conditions. The temperature in the feeding room was maintained at 20-24° C. and the humidity was maintained at 40-70%. The temperature and humidity of the feeding room were monitored in real time by a temperature and humidity meter, and the temperature and humidity were recorded twice a day (once in the morning and once in the afternoon). The lighting in the animal feeding room was controlled by an electronic timing light-on system. The lights were turned on for 12 hours and turned off for 12 hours every day (on at 7:00 in the morning and off at 19:00 in the afternoon). During the experiment, the mice were individually housed in each cage, and toys were provided to the mice in each cage. During the experiment mice had free access to water. The db/db male mice (6 weeks old) were given one week to acclimate to the environmental conditions of the test facility. Baseline blood glucose and body weight were recorded for three days before the test (−3 day to −1 day). The mice were randomly grouped based on three-day blood glucose and body weight, with 6 mice in each group. The mice were injected subcutaneously with PBS (5 ml/kg, control group) or the peptide compounds 1, 2, 8, 16, 18, 19, 24, and 36 (30 nmol/kg) respectively at 10:00 am. Blood was collected at 0 hour before drug administration, and 1, 2, 4, 6, 8 and 10 hours after administration, and blood glucose was measured using a OneTouch glucose meter (Johnson & Johnson) and test strips. Blood glucose curves were plotted with time as the abscissa and the blood glucose value at different time point as the ordinate, the areas under the curve (AUC) were calculated, and the hypoglycemic effects and duration of time of the peptide compounds were compared.
Substance,blood glucose (db/db mice [1]),lean mass (DIO obese mice),fat mass (DIO obese mice),blood glucose (db/db mice [2])
"Y(aib)EGTFTSDLSI(aib)LEKEAVRLFIEWLLAGGPSSGAPPPC-NH2 (YXEGTFTSDLSIXLEKEAVRLFIEWLLAGGPSSGAPPPC; Aib; C-terminal amide; MOD_RES (2)..(2) X=aminoisobutyric aicd; MOD_RES (13)..(13) X=aminoisobutyric aicd; MOD_RES (39)..(39) AMIDATION, C-termianl amidation) [Compound 38]",significantly reduced the blood glucose,,,
Y(aib)EGTFTSDLSIALEKEAVRLFIEWLLAGGPSSGAPPPK-NH2 (Y[Aib]EGTFTSDLSIALEKEAVRLFIEWLLAGGPSSGAPPPK-NH2; N-terminus assumed; SMILES CC[C@H](C)[C@H](NC(=O)[C@H](CO)NC(=O)[C@H](CC(C)C)NC(=O)[C@H](CC(=O)O)NC(=O)[C@H](CO)NC(=O)[C@@H](NC(=O)[C@H](Cc1ccccc1)NC(=O)[C@@H](NC(=O)CNC(=O)[C@H](CCC(=O)O)NC(=O)C(C)(C)NC(=O)[C@@H](N)Cc1ccc(O)cc1)[C@@H](C)O)[C@@H](C)O)C(=O)N[C@@H](C)C(=O)N[C@@H](CC(C)C)C(=O)N[C@@H](CCC(=O)O)C(=O)N[C@@H](CCCCN)C(=O)N[C@@H](CCC(=O)O)C(=O)N[C@@H](C)C(=O)N[C@H](C(=O)N[C@@H](CCCNC(=N)N)C(=O)N[C@@H](CC(C)C)C(=O)N[C@@H](Cc1ccccc1)C(=O)N[C@H](C(=O)N[C@@H](CCC(=O)O)C(=O)N[C@@H](Cc1c[nH]c2ccccc12)C(=O)N[C@@H](CC(C)C)C(=O)N[C@@H](CC(C)C)C(=O)N[C@@H](C)C(=O)NCC(=O)NCC(=O)N1CCC[C@H]1C(=O)N[C@@H](CO)C(=O)N[C@@H](CO)C(=O)NCC(=O)N[C@@H](C)C(=O)N1CCC[C@H]1C(=O)N1CCC[C@H]1C(=O)N1CCC[C@H]1C(=O)N[C@@H](CCCCN)C(N)=O)[C@@H](C)CC)C(C)C) [Compound 35],significantly reduced the blood glucose,basically unchanged,effectively reduced fat mass; also recorded: decreased markedly,
"Y(aib)EGTFTSDLSI(aib)LEKEAVKLFIEWLLAGGPSSGAPPPK-NH2 (YXEGTFTSDLSIXLEKEAVKLFIEWLLAGGPSSGAPPPK; Aib; C-terminal amide; …ON (2)..(2) X=aminoisobutyric aicd; …ON (13)..(13) X=aminoisobutyric aicd; …ON (39)..(39) AMIDATION, C-termianl amidation) [Compound 49]",significantly reduced the blood glucose,,,
Y(aib)EGTFTSDLSIALEKEAVKLFIEWLLAGGPSSGAPPPK-NH2 (Y[Aib]EGTFTSDLSIALEKEAVKLFIEWLLAGGPSSGAPPPK-NH2; N-terminus assumed; SMILES CC[C@H](C)[C@H](NC(=O)[C@H](CO)NC(=O)[C@H](CC(C)C)NC(=O)[C@H](CC(=O)O)NC(=O)[C@H](CO)NC(=O)[C@@H](NC(=O)[C@H](Cc1ccccc1)NC(=O)[C@@H](NC(=O)CNC(=O)[C@H](CCC(=O)O)NC(=O)C(C)(C)NC(=O)[C@@H](N)Cc1ccc(O)cc1)[C@@H](C)O)[C@@H](C)O)C(=O)N[C@@H](C)C(=O)N[C@@H](CC(C)C)C(=O)N[C@@H](CCC(=O)O)C(=O)N[C@@H](CCCCN)C(=O)N[C@@H](CCC(=O)O)C(=O)N[C@@H](C)C(=O)N[C@H](C(=O)N[C@@H](CCCCN)C(=O)N[C@@H](CC(C)C)C(=O)N[C@@H](Cc1ccccc1)C(=O)N[C@H](C(=O)N[C@@H](CCC(=O)O)C(=O)N[C@@H](Cc1c[nH]c2ccccc12)C(=O)N[C@@H](CC(C)C)C(=O)N[C@@H](CC(C)C)C(=O)N[C@@H](C)C(=O)NCC(=O)NCC(=O)N1CCC[C@H]1C(=O)N[C@@H](CO)C(=O)N[C@@H](CO)C(=O)NCC(=O)N[C@@H](C)C(=O)N1CCC[C@H]1C(=O)N1CCC[C@H]1C(=O)N1CCC[C@H]1C(=O)N[C@@H](CCCCN)C(N)=O)[C@@H](C)CC)C(C)C) [Compound 44],significantly reduced the blood glucose,,,
"Y(aib)EGTFTSDLSI(aib)LEKEAVRLFIEWLLAGGPSSGAPPPK-NH2 (YXEGTFTSDLSIXLEKEAVRLFIEWLLAGGPSSGAPPPK; Aib; C-terminal amide; MOD_RES (2)..(2) X=aminoisobutyric aicd; MOD_RES (13)..(13) X=aminoisobutyric aicd; MOD_RES (39)..(39) AMIDATION, C-termianl amidation) [Compound 40]",,basically unchanged,effectively reduced fat mass; also recorded: decreased markedly,
Y(aib)EGTFTSDLSIALEKEAVRLFIEWLLAGGPSSGAPPPS-NH2 (Y[Aib]EGTFTSDLSIALEKEAVRLFIEWLLAGGPSSGAPPPS-NH2; N-terminus assumed; SMILES CC[C@H](C)[C@H](NC(=O)[C@H](CO)NC(=O)[C@H](CC(C)C)NC(=O)[C@H](CC(=O)O)NC(=O)[C@H](CO)NC(=O)[C@@H](NC(=O)[C@H](Cc1ccccc1)NC(=O)[C@@H](NC(=O)CNC(=O)[C@H](CCC(=O)O)NC(=O)C(C)(C)NC(=O)[C@@H](N)Cc1ccc(O)cc1)[C@@H](C)O)[C@@H](C)O)C(=O)N[C@@H](C)C(=O)N[C@@H](CC(C)C)C(=O)N[C@@H](CCC(=O)O)C(=O)N[C@@H](CCCCN)C(=O)N[C@@H](CCC(=O)O)C(=O)N[C@@H](C)C(=O)N[C@H](C(=O)N[C@@H](CCCNC(=N)N)C(=O)N[C@@H](CC(C)C)C(=O)N[C@@H](Cc1ccccc1)C(=O)N[C@H](C(=O)N[C@@H](CCC(=O)O)C(=O)N[C@@H](Cc1c[nH]c2ccccc12)C(=O)N[C@@H](CC(C)C)C(=O)N[C@@H](CC(C)C)C(=O)N[C@@H](C)C(=O)NCC(=O)NCC(=O)N1CCC[C@H]1C(=O)N[C@@H](CO)C(=O)N[C@@H](CO)C(=O)NCC(=O)N[C@@H](C)C(=O)N1CCC[C@H]1C(=O)N1CCC[C@H]1C(=O)N1CCC[C@H]1C(=O)N[C@@H](CO)C(N)=O)[C@@H](C)CC)C(C)C) [Compound 31],significantly reduced the blood glucose,,,
Y(aib)EGTFTSDYSIYLDEEAVKLFVNWLIAGGPSSGAPPPS-NH2 (Y[Aib]EGTFTSDYSIYLDEEAVKLFVNWLIAGGPSSGAPPPS-NH2; N-terminus assumed; SMILES CC[C@H](C)[C@H](NC(=O)[C@H](CC(C)C)NC(=O)[C@H](Cc1c[nH]c2ccccc12)NC(=O)[C@H](CC(N)=O)NC(=O)[C@@H](NC(=O)[C@H](Cc1ccccc1)NC(=O)[C@H](CC(C)C)NC(=O)[C@H](CCCCN)NC(=O)[C@@H](NC(=O)[C@H](C)NC(=O)[C@H](CCC(=O)O)NC(=O)[C@H](CCC(=O)O)NC(=O)[C@H](CC(=O)O)NC(=O)[C@H](CC(C)C)NC(=O)[C@H](Cc1ccc(O)cc1)NC(=O)[C@@H](NC(=O)[C@H](CO)NC(=O)[C@H](Cc1ccc(O)cc1)NC(=O)[C@H](CC(=O)O)NC(=O)[C@H](CO)NC(=O)[C@@H](NC(=O)[C@H](Cc1ccccc1)NC(=O)[C@@H](NC(=O)CNC(=O)[C@H](CCC(=O)O)NC(=O)C(C)(C)NC(=O)[C@@H](N)Cc1ccc(O)cc1)[C@@H](C)O)[C@@H](C)O)[C@@H](C)CC)C(C)C)C(C)C)C(=O)N[C@@H](C)C(=O)NCC(=O)NCC(=O)N1CCC[C@H]1C(=O)N[C@@H](CO)C(=O)N[C@@H](CO)C(=O)NCC(=O)N[C@@H](C)C(=O)N1CCC[C@H]1C(=O)N1CCC[C@H]1C(=O)N1CCC[C@H]1C(=O)N[C@@H](CO)C(N)=O) [Compound 2],,,,significantly reduce blood glucose
